Results on 22 compounds are retold here after patent US10336739B2, “4-hydroxy-3-(heteroaryl)pyridine-2-one APJ agonists” (BRISTOL-MYERS SQUIBB COMPANY, priority 2015, dated 2019).

Molecules are shown by their SMILES.

A word on the EC50: it is the concentration that produces a half-maximal response.

human APJ receptor, sequence (P35414 whole entry): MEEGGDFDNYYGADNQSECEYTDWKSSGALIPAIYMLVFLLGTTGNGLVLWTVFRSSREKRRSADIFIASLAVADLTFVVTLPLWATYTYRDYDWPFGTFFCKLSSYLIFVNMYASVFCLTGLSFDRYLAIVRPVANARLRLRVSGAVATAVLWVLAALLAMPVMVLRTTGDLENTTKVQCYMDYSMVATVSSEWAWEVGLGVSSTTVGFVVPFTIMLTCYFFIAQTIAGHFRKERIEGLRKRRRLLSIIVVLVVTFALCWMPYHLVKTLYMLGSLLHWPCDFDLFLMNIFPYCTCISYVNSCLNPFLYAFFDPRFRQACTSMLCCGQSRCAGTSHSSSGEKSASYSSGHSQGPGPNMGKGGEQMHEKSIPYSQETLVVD

One experiment addresses human APJ receptor (Homo sapiens (Human), UniProt P35414). Kind of experiment: Intracellular cAMP accumulation assay (APJ hcAMP, HTRF). To be noted: HEK293 cells stably expressing human APJ receptor; inhibition of forskolin-mediated cAMP production; read-out: hAPJ cAMP EC50 (nM) Potency range. Format: cell-based. Summed up:
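HEK293 cells stably expressing human APJ, 5,000 per well, exposed to compound with […] IBMX and 2 μM forskolin for 30 minutes at room temperature. cAMP measured by HTRF after lysis and 60 min detection incubation. EC50 from sigmoidal variable-slope fits of inhibition of forskolin-induced cAMP, quantified against a cAMP standard curve.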
On the technique in general: Cyclic AMP is a second messenger, typically raised through Gs and lowered through Gi signalling.
As for `CCCCc1nc(O)c(-c2nnc(CC(=O)NCc3ccccc3C)o2)c(O)c1-c1c(OC)cccc1OC` [Example 264, 2-{5-[6-butyl-5-(2,6-dimethoxyphenyl)-2,4-dihydroxy-pyridin-3-yl]-1,3,4-oxadiazol-2-yl}-N-[(2-methylphenyl)methyl]acetamide], the EC50 lay within 0.01 to 10 nM.

`COc1cccc(OC)c1-c1c(C2CCCC2)nc(O)c(-c2nnc(Cc3ccc(Cl)cn3)o2)c1O` [Example 238, 3-{5-[(5-chloropyridin-2-yl)methyl]-1,3,4-oxadiazol-2-yl}-6-cyclopentyl-5-(2,6-dimethoxyphenyl) pyridine-2,4-diol]: the EC50 is 0.01 to 10 nM.

In the case of `CCCCc1nc(O)c(-c2nnc(CC(=O)NCCc3ccc(S(N)(=O)=O)cc3)o2)c(O)c1-c1c(OC)cccc1OC` [Example 257, 2-{5-[6-butyl-5-(2,6-dimethoxyphenyl)-2,4-dihydroxy-pyridin-3-yl]-1,3,4-oxadiazol-2-yl}-N-[2-(4-sulfamoylphenyl)ethyl]acetamide], the EC50 is 0.01 to 10 nM.

On to `CCCCc1nc(O)c(-c2nnc(CC(=O)NCc3cccc(Cl)c3)o2)c(O)c1-c1c(OC)cccc1OC` [Example 259, 2-{5-[6-butyl-5-(2,6-dimethoxyphenyl)-2,4-dihydroxy-pyridin-3-yl]-1,3,4-oxadiazol-2-yl}-N-[(3-chlorophenyl)methyl]acetamide], for which the 50% effective concentration (EC50) lay within 0.01 to 10 nM.

In the case of `CCCCc1nc(O)c(-c2nnc(CC(=O)N(C)CCc3ccccc3)o2)c(O)c1-c1c(OC)cccc1OC` [Example 261, 2-{5-[6-butyl-5-(2,6-dimethoxyphenyl)-2,4-dihydroxy-pyridin-3-yl]-1,3,4-oxadiazol-2-yl}-N-methyl-N-(2-phenylethyl) acetamide], the 50% effective concentration (EC50) lay in the range of 0.01 to 10 nM.

The same experiment, now with this note: HEK293 cells stably expressing human APJ receptor; inhibition of forskolin-mediated cAMP production; read-out: hAPJ cAMP EC50 Potency range.
For `CCCCc1nc(O)c(-c2nnc(CNC(=O)c3ccc(Cl)cc3)o2)c(O)c1-c1c(OC)cccc1OC` [Example 163, N-({5-[6-butyl-5-(2,6-dimethoxyphenyl)-2,4-dihydroxypyridin-3-yl]-1,3,4-oxadiazol-2-yl}methyl)-4-chlorobenzamide], the EC50 was in the range of 0.01 to 10 nM.

With `CCCCc1nc(O)c(-c2nnc(C3CC3)o2)c(O)c1-c1c(OC)cccc1OC` [Example 14, 6-butyl-3-(5-cyclopropyl-1,3,4-oxadiazol-2-yl)-5-(2,6-dimethoxyphenyl) pyridine-2,4-diol], the EC50 was in the range of 100 to 300 nM.

Regarding `CCCCc1nc(O)c(-c2nnc(COc3ccc(C(F)(F)F)cc3)o2)c(O)c1-c1c(OC)cccc1OC` [Example 65, 6-butyl-5-(2,6-dimethoxyphenyl)-3-{5-[4-(trifluoromethyl)phenoxymethyl]-1,3,4-oxadiazol-2-yl}pyridine-2,4-diol], the concentration giving a half-maximal response (EC50) lay in the range of 10 to 100 nM.

Regarding `CCCCc1nc(O)c(-c2nnc(C(C)(C)c3ccccc3)o2)c(O)c1-c1c(OC)cccc1OC` [Example 15, 6-butyl-5-(2,6-dimethoxyphenyl)-3-[5-(2-phenylpropan-2-yl)-1,3,4-oxadiazol-2-yl]pyridine-2,4-diol], the EC50 fell in the range of 0.01 to 10 nM.

On to `CCCCc1nc(O)c(-c2nnc(Cc3nc(-c4ccccc4)sc3C)o2)c(O)c1-c1c(OC)cccc1OC` [Example 84, 6-butyl-5-(2,6-dimethoxyphenyl)-3-{5-[(5-methyl-2-phenyl-1,3-thiazol-4-yl)methyl]-1,3,4-oxadiazol-2-yl}pyridine-2,4-diol], for which the concentration giving a half-maximal response (EC50) lay within 0.01 to 10 nM.

Take `CCCCc1nc(O)c(-c2nnc(Cc3cccc(Cl)c3)o2)c(O)c1-c1c(OC)cccc1OC` [Example 23, 6-butyl-3-{5-[(3-chlorophenyl)methyl]-1,3,4-oxadiazol-2-yl}-5-(2,6-dimethoxyphenyl) pyridine-2,4-diol]: the 50% effective concentration (EC50) lay in the range of 0.01 to 10 nM.

For `CCCCc1nc(O)c(-c2nnc(Cc3nc(-c4ccccc4)no3)o2)c(O)c1-c1c(OC)cccc1OC` [Example 111, 6-butyl-5-(2,6-dimethoxyphenyl)-3-{5-[(3-phenyl-1,2,4-oxadiazol-5-yl)methyl]-1,3,4-oxadiazol-2-yl}pyridine-2,4-diol], the EC50 was in the range of 0.01 to 10 nM.

As for `CCCCc1nc(O)c(-c2nnc(CC(=O)Nc3ccc(OC)cc3)o2)c(O)c1-c1c(OC)cccc1OC` [Example 183, 2-{5-[6-butyl-5-(2,6-dimethoxyphenyl)-2,4-dihydroxypyridin-3-yl]-1,3,4-oxadiazol-2-yl}-N-(4-methoxyphenyl) acetamide], the concentration giving a half-maximal response (EC50) is 10 to 100 nM.

As for `CCCCc1nc(O)c(-c2nnc(Cc3nnc(-c4ccccc4Cl)o3)o2)c(O)c1-c1c(OC)cccc1OC` [Example 208, 6-butyl-3-(5-{[5-(2-chlorophenyl)-1,3,4-oxadiazol-2-yl]methyl}-1,3,4-oxadiazol-2-yl)-5-(2,6-dimethoxyphenyl) pyridine-2,4-diol], the EC50 is 0.01 to 10 nM.

Turning to `CCCCc1nc(O)c(-c2nnc(Cc3ccc(F)c(F)c3)o2)c(O)c1-c1cccc(C(=O)NC(C)C)c1` [Example 147, 3-(2-butyl-5-{5-[(3,4-difluorophenyl)methyl]-1,3,4-oxadiazol-2-yl}-4,6-dihydroxypyridin-3-yl)-N-(propan-2-yl)benzamide], the EC50 is 10 to 100 nM.

In the case of `CCCCc1nc(O)c(-c2nnc(Cc3noc4ccccc34)o2)c(O)c1-c1c(OC)ccc(F)c1OC` (single isomer, unassigned; isomer 2) [Example 221, 3-[5-(1,2-benzoxazol-3-ylmethyl)-1,3,4-oxadiazol-2-yl]-6-butyl-5-(3-fluoro-2,6-dimethoxyphenyl) pyridine-2,4-diol (isomer 2)], the EC50 is 0.01 to 10 nM.

Turning to `CCCCc1nc(O)c(-c2nnc(CNC(=O)c3ccccn3)o2)c(O)c1-c1c(OC)cccc1OC` [Example 168, N-({5-[6-butyl-5-(2,6-dimethoxyphenyl)-2,4-dihydroxypyridin-3-yl]-1,3,4-oxadiazol-2-yl}methyl)pyridine-2-carboxamide], the EC50 was 0.01 to 10 nM.

In the case of `CCCCc1nc(O)c(-c2nnc(CCc3ccc(F)c(F)c3)o2)c(O)c1-c1c(OC)cccc1OC` [Example 74, 6-butyl-3-{5-[2-(3,4-difluorophenyl)ethyl]-1,3,4-oxadiazol-2-yl}-5-(2,6-dimethoxyphenyl) pyridine-2,4-diol], the EC50 was 0.01 to 10 nM.

Take `CCCCc1nc(O)c(-c2nnc(Cc3cccc(F)c3)o2)c(O)c1-c1c(OC)cccc1OC` [Example 99, 6-butyl-5-(2,6-dimethoxyphenyl)-3-{5-[(3-fluorophenyl)methyl]-1,3,4-oxadiazol-2-yl}pyridine-2,4-diol]: the EC50 fell in the range of 0.01 to 10 nM.

Take `CCCCc1nc(O)c(-c2nnc(Cc3nc(C4CC4)no3)o2)c(O)c1-c1c(OC)cccc1OC` [Example 109, 6-butyl-3-{5-[(3-cyclopropyl-1,2,4-oxadiazol-5-yl)methyl]-1,3,4-oxadiazol-2-yl}-5-(2,6-dimethoxyphenyl) pyridine-2,4-diol]: the half-maximal effective concentration (EC50) lay in the range of 0.01 to 10 nM.

In the case of `CCCCc1nc(O)c(-c2nnc(CCc3nc(-c4ccccn4)no3)o2)c(O)c1-c1c(OC)cccc1OC` [Example 83, 6-butyl-5-(2,6-dimethoxyphenyl)-3-(5-{2-[3-(pyridin-2-yl)-1,2,4-oxadiazol-5-yl]ethyl}-1,3,4-oxadiazol-2-yl)pyridine-2,4-diol], the 50% effective concentration (EC50) lay within 0.01 to 10 nM.

In the case of `CCCCc1nc(O)c(-c2nnc(Cc3ccc(F)c(OC)c3)o2)c(O)c1-c1c(OC)cccc1OC` [Example 48, 6-butyl-5-(2,6-dimethoxyphenyl)-3-{5-[(4-fluoro-3-methoxyphenyl)methyl]-1,3,4-oxadiazol-2-yl}pyridine-2,4-diol], the EC50 was 0.01 to 10 nM.
